Here are results for seven compounds from ChEMBL document CHEMBL3991601, “The target landscape of clinical kinase drugs” (Science, 2017).

The target in experiment [1] is Receptor-interacting serine/threonine-protein kinase 3 (Homo sapiens, UniProt Q9Y572).
For experiment [2], the target named is Serine/threonine-protein kinase MRCK beta (Homo sapiens, UniProt Q9Y5S2).
The target of experiment [3] is Putative heat shock protein HSP 90-beta 2 (Homo sapiens, UniProt Q58FF8).
For experiment [4], the target named is Ephrin type-A receptor 7 (Homo sapiens, UniProt Q15375).
Sequence of Ephrin type-A receptor 7 (Q15375 whole entry): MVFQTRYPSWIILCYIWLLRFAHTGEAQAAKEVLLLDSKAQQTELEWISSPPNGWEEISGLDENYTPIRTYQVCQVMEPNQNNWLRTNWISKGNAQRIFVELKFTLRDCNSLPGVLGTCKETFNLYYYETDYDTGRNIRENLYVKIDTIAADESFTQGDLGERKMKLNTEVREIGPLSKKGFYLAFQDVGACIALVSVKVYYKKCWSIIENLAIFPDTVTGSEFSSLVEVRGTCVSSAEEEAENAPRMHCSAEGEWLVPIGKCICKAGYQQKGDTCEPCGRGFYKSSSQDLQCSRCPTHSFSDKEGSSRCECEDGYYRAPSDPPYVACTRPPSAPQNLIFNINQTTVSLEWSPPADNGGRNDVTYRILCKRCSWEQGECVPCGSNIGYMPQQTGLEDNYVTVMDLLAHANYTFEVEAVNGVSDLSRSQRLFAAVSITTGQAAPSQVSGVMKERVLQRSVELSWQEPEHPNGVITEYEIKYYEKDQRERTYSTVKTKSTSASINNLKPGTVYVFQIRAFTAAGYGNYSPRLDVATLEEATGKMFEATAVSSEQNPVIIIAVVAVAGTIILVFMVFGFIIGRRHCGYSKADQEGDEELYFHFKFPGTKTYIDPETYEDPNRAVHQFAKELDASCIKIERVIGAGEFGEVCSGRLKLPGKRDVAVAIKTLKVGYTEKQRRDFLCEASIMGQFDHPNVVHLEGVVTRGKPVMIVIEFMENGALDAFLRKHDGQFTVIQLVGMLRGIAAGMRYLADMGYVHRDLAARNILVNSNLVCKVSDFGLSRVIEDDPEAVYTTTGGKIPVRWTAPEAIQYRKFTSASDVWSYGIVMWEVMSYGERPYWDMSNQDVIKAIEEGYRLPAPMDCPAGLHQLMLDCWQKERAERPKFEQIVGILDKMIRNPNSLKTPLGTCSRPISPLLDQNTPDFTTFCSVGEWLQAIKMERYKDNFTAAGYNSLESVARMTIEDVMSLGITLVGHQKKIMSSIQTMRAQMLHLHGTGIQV
The target of experiment [5] is Mitotic checkpoint serine/threonine-protein kinase BUB1 (Homo sapiens, UniProt O43683).
Experiment [6] concerns the target Tyrosine-protein kinase JAK1 (Homo sapiens, UniProt P23458).
The target of experiment [7] is Serine/threonine-protein kinase 26 (Homo sapiens, UniProt Q9P289).
Sequence of Serine/threonine-protein kinase 26 (Q9P289 whole entry): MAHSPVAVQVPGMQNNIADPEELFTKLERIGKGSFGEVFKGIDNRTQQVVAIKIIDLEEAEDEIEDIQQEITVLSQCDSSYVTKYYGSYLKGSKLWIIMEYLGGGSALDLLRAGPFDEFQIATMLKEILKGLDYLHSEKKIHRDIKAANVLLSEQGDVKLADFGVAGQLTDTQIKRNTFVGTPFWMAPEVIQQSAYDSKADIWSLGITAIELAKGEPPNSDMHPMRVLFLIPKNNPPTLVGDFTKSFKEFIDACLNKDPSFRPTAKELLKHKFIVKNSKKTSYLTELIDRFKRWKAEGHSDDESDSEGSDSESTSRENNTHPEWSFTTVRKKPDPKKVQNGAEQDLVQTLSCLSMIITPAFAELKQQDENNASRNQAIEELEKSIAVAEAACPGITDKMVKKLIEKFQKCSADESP
Experiment [8] deals with T1, Dynamin-like GTPase OPA1, mitochondrial (Homo sapiens, UniProt O60313).
T1 sequence (O60313 whole entry): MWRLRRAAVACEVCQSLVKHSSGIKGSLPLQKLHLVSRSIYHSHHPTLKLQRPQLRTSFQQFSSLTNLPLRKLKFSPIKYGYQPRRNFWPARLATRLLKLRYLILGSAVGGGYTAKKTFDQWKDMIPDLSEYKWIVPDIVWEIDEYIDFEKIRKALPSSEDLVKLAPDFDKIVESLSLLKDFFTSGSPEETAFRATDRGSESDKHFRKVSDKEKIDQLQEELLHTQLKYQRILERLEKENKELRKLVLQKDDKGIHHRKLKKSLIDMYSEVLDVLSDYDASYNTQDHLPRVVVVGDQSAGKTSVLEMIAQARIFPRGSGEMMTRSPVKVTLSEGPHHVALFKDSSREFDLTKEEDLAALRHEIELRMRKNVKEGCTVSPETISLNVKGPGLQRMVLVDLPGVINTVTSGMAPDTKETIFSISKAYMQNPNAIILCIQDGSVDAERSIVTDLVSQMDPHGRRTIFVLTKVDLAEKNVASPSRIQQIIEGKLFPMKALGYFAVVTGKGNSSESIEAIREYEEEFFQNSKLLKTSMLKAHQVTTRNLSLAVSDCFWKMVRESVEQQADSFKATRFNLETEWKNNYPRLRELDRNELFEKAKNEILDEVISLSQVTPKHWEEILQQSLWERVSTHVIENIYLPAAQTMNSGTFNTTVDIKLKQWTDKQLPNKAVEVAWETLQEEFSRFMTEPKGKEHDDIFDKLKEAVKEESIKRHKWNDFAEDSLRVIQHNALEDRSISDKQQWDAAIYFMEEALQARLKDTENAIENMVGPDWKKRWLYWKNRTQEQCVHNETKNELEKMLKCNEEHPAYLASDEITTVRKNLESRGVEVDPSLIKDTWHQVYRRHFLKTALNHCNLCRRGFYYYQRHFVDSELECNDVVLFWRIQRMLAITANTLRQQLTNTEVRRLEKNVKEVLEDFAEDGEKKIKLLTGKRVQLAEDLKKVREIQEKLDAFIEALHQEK

Experiment [9] concerns the target NADH dehydrogenase [ubiquinone] 1 alpha subcomplex subunit 13 (Homo sapiens, UniProt Q9P0J0).
For experiment [10], the target named is T2, Cyclin-G-associated kinase (Homo sapiens, UniProt O14976).
T2 sequence (O14976 whole entry): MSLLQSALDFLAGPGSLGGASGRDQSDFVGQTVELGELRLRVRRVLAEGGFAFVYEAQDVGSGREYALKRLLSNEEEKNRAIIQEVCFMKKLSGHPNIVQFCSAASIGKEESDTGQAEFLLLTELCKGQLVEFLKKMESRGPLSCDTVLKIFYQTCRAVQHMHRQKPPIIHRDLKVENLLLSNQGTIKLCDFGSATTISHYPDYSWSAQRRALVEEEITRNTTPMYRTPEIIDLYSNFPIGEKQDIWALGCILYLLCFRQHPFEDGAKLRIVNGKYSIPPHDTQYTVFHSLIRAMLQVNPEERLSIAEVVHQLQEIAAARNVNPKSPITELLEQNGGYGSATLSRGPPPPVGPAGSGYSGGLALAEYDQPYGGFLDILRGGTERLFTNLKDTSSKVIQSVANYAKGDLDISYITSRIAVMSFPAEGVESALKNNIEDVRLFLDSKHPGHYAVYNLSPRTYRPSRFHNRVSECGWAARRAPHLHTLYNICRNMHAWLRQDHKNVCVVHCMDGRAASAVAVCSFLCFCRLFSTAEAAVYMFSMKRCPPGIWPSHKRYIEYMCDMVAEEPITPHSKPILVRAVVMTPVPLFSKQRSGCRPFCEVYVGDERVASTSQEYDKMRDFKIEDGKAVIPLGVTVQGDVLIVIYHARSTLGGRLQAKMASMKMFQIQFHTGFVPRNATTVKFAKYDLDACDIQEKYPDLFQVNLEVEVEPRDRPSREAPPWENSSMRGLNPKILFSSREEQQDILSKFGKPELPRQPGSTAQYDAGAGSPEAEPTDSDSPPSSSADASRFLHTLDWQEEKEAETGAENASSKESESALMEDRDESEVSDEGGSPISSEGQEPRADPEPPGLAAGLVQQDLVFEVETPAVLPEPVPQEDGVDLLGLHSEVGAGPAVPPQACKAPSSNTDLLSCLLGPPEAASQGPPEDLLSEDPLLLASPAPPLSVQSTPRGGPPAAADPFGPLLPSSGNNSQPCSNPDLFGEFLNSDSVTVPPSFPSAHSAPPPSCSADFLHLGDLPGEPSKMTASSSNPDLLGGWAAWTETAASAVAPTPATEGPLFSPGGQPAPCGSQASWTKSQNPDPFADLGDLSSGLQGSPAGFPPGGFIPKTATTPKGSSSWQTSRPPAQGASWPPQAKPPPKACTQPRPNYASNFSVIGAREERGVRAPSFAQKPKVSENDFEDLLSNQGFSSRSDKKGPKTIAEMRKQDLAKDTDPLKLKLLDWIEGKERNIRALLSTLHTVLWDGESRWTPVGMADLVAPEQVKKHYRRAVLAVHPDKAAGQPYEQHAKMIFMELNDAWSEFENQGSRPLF

For experiment [11], the target named is Deoxycytidine kinase (Homo sapiens, UniProt P27707).
Experiment [12] addresses Tyrosine-protein kinase SYK (Homo sapiens, UniProt P43405).
Experiment [13] deals with Aurora kinase B (Homo sapiens, UniProt Q96GD4).
Experiment [14] has as its target RAC-alpha serine/threonine-protein kinase (Homo sapiens, UniProt P31749).
The target of experiment [15] is Protein-tyrosine kinase 2-beta (Homo sapiens, UniProt Q14289).
Sequence of Protein-tyrosine kinase 2-beta (Q14289 whole entry): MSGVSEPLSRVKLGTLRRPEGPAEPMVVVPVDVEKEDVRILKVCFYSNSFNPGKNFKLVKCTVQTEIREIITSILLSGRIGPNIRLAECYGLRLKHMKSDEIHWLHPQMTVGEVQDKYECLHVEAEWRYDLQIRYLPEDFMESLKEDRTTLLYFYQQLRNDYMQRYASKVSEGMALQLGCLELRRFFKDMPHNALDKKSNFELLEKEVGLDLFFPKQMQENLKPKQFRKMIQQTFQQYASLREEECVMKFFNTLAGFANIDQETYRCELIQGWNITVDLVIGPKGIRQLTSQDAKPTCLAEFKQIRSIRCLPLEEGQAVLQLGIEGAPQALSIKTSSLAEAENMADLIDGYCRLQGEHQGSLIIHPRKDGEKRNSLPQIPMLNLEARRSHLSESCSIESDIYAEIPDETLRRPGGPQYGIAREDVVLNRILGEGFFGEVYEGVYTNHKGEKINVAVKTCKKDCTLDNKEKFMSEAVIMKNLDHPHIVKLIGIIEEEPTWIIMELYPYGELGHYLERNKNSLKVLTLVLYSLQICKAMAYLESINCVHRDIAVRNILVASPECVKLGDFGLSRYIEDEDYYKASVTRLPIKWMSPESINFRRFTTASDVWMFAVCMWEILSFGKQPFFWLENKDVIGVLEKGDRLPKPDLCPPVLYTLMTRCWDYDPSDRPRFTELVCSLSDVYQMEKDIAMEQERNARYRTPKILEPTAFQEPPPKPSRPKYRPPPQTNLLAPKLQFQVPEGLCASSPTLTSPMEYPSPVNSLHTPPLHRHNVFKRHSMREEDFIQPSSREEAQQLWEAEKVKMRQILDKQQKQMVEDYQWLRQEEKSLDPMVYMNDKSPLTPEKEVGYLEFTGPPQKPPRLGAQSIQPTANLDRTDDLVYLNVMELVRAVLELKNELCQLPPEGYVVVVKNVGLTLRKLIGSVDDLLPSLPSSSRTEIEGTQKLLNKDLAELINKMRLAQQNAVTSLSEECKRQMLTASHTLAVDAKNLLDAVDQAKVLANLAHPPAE

Structures are written as SMILES. The source made the active and inactive calls. Cut-off read from the data, not from the text of the source, for most assays here: actives have a measured Kd and inactives only a lower limit. Some results are limits rather than exact numbers.
Note: in the data inactive means no Kd found up to 30 µM.

Sequence of Putative heat shock protein HSP 90-beta 2 (Q58FF8 whole entry): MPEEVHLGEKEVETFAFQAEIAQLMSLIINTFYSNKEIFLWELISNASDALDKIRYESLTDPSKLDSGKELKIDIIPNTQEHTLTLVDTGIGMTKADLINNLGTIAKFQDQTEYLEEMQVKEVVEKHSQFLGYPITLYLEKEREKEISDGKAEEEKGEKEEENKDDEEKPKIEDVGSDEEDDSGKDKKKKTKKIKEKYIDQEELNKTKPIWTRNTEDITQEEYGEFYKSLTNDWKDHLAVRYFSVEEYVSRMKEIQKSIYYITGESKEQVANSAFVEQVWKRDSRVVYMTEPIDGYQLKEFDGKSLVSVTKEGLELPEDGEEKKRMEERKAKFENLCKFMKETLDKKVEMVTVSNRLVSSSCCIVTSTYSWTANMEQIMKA
Sequence of Serine/threonine-protein kinase MRCK beta (Q9Y5S2 whole entry): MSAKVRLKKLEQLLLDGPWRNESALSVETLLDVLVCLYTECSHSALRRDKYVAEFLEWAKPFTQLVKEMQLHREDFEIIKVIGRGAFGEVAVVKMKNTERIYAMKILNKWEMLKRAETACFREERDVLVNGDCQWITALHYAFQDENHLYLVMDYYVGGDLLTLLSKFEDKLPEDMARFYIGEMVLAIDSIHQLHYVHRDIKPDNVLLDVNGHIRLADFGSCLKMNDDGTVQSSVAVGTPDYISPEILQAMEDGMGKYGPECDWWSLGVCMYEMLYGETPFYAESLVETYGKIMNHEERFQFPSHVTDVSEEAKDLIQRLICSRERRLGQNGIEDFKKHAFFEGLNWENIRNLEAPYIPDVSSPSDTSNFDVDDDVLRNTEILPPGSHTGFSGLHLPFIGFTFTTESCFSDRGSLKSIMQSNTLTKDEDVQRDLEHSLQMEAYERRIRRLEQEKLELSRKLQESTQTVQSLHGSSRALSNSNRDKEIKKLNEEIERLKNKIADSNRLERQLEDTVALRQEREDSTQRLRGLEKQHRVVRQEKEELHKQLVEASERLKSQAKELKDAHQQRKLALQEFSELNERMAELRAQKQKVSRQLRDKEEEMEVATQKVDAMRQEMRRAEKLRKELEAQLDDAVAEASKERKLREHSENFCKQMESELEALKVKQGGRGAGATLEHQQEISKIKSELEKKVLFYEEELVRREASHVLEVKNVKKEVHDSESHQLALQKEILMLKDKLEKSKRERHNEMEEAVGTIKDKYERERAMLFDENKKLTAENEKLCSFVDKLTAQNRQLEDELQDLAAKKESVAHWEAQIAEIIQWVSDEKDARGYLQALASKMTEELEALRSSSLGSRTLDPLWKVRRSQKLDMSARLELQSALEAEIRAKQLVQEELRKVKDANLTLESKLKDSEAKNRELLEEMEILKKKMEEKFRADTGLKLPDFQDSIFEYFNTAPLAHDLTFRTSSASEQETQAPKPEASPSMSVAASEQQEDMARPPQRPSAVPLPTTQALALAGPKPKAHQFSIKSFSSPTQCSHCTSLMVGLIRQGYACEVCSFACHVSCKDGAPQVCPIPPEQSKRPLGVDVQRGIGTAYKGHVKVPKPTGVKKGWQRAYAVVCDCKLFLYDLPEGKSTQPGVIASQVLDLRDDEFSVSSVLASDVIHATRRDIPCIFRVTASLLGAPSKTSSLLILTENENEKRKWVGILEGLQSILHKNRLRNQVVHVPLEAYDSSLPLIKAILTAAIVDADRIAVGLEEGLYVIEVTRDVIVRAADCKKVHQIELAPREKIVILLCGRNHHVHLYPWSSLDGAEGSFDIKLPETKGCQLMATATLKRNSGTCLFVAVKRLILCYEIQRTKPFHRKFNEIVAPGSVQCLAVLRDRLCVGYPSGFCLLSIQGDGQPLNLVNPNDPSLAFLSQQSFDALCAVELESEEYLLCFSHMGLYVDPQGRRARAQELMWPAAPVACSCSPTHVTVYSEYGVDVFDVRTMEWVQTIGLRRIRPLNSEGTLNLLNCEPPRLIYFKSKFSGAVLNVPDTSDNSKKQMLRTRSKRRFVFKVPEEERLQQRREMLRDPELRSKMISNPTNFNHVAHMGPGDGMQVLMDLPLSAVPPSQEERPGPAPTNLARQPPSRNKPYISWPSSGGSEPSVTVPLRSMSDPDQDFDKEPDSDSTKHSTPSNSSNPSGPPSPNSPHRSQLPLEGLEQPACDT
Sequence of Receptor-interacting serine/threonine-protein kinase 3 (Q9Y572 whole entry): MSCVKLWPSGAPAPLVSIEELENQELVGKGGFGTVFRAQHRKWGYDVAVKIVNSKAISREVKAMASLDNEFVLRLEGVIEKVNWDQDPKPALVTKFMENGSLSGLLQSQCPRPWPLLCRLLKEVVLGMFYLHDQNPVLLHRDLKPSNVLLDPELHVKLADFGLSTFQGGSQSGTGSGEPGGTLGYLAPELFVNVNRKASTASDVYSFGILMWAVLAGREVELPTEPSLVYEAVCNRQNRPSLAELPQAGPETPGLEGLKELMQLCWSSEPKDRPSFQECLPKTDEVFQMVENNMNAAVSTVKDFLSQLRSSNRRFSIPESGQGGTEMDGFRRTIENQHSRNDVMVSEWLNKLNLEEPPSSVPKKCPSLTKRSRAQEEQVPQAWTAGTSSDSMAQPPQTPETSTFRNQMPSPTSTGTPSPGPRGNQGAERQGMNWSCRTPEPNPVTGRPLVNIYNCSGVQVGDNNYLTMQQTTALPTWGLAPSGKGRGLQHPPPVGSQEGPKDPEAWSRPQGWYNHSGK

On to `CCc1nc(C(N)=O)c(Nc2ccc(N3CCC(N4CCN(C)CC4)CC3)c(OC)c2)nc1NC1CCOCC1` [GILTERITINIB], for which the Kd was 1.3 µM (active) in experiment [1]; > 30 µM (inactive) in experiment [2]; > 30 µM (inactive) in experiment [3]; 2.98 µM (active) in experiment [4]; 0.191 µM (active) in [5]; > 30 µM (inactive) in experiment [6]. In addition, the Kd is 1.14 µM (active) in experiment [7]; > 30 µM (inactive) in experiment [8]; > 30 µM (inactive) in experiment [9]; 0.009 µM (active) in experiment [10]; > 30 µM (inactive) in experiment [11]; 4.04 µM (active) in experiment [12]. Also, the Kd in [13] was > 30 µM (inactive); in experiment [14], > 30 µM (inactive); in [15], 0.51 µM (active).

Turning to `COc1cc(F)c(F)c(Nc2ccc(I)cc2F)c1NS(=O)(=O)C1(C[C@H](O)CO)CC1` [REFAMETINIB], the Kd in [1], in [2], in [3], in experiment [4], in experiment [5] and in experiment [6] was > 30 µM (inactive) in each case. Also, the Kd in experiment [7], in [8], in experiment [9], in experiment [10], in [11] and in experiment [12] was > 30 µM (inactive) in each case. In addition, the Kd in experiment [13], in experiment [14] and in experiment [15] was > 30 µM (inactive) throughout.

As for `COc1cc2ncnc3c2cc1OCCCCCN(C)Cc1ccc(Br)cc1N3` [JNJ-26483327], the Kd in experiment [1], in experiment [2], in experiment [3], in experiment [4], in [5] and in experiment [6] was > 30 µM (inactive) in each case. For the same compound, the Kd was > 30 µM (inactive) in experiment [7]; > 30 µM (inactive) in experiment [8]; > 30 µM (inactive) in [9]; 0.12 µM (active) in experiment [10]; > 30 µM (inactive) in experiment [11]; > 30 µM (inactive) in experiment [12]. Also, the Kd in experiment [13], in experiment [14] and in experiment [15] was > 30 µM (inactive) throughout.

For the compound `CCc1cc2c(cc1N1CCC(N3CCOCC3)CC1)C(C)(C)c1[nH]c3cc(C#N)ccc3c1C2=O` [ALECTINIB], the Kd in experiment [1], in experiment [2], in experiment [3], in experiment [4], in experiment [5] and in experiment [6] was > 30 µM (inactive) in each case. For the same compound, the Kd in experiment [7] was > 30 µM (inactive); in experiment [8] it was > 30 µM (inactive); in experiment [9] it was > 30 µM (inactive); in experiment [10], 0.259 µM (active); in experiment [11] it was > 30 µM (inactive); in experiment [12], > 30 µM (inactive). Besides, the Kd in experiment [13], in experiment [14] and in experiment [15] was > 30 µM (inactive) throughout.

As for `COc1cc2ncnc(Nc3ccc(F)c(Cl)c3)c2cc1NC(=O)/C=C/CN1CCCCC1` [DACOMITINIB ANHYDROUS], the Kd in experiment [1] was 3.64 µM (active); in experiment [2], > 30 µM (inactive); in experiment [3], > 30 µM (inactive); in experiment [4], > 30 µM (inactive); in experiment [5], > 30 µM (inactive); in experiment [6] it was > 30 µM (inactive). For the same compound, the Kd in experiment [7] is > 30 µM (inactive); in experiment [8] it was > 30 µM (inactive); in experiment [9], > 30 µM (inactive); in experiment [10] it was 0.168 µM (active); in experiment [11], > 30 µM (inactive); in [12], > 30 µM (inactive). For the same compound, the Kd in experiment [13], in experiment [14] and in [15] was > 30 µM (inactive) in each case.

As for `Cc1cc(-c2cc(OC(=O)c3ccccc3)ccc2Cl)cc2nnc(Nc3ccc(OCCN4CCCC4)cc3)nc12` [TG100-801], the Kd in [1], in experiment [2], in experiment [3], in experiment [4], in experiment [5] and in experiment [6] was > 30 µM (inactive) in each case. For the same compound, the Kd was > 30 µM (inactive) in experiment [7]; > 30 µM (inactive) in experiment [8]; > 30 µM (inactive) in experiment [9]; 0.824 µM (active) in [10]; > 30 µM (inactive) in experiment [11]; > 30 µM (inactive) in experiment [12]. For the same compound, the Kd in experiment [13], in experiment [14] and in experiment [15] was > 30 µM (inactive) in each case.

For `Cc1c(Cn2c(C)nc3c(C(=O)O)cc(N4CCOCC4)cc32)cccc1C(F)(F)F` [GSK-2636771], the Kd in experiment [1], in experiment [2], in experiment [3], in experiment [4], in experiment [5] and in [6] was > 30 µM (inactive) in each case. The Kd in experiment [7], in experiment [8], in [9], in experiment [10], in experiment [11] and in [12] was > 30 µM (inactive) each time. Further, the Kd in [13], in experiment [14] and in experiment [15] was > 30 µM (inactive) throughout.
